Laboratory results published in article PMC9096814 (Biochemistry, 2022).
Where two headings read alike, the source gives them in different places.

What was measured:
cathepsin B [1] = molecular target: T1, cathepsin B (Homo sapiens, UniProt P07858); test: Irreversible inhibition mechanism by dilution experiments; assay type: biochemical; settings: pH 4.6, pH 5.5, and pH 7.2; preincubation at 10 times the IC50, diluted 100-fold, Z-F-R-AMC added
Cathepsin V = Cathepsin V (Homo sapiens, UniProt O60911); test: Selectivity assay, cathepsin V; assay type: biochemical; settings: for % inhibition: 16 μM inhibitor
Cathepsin V, sequence (O60911 114-334): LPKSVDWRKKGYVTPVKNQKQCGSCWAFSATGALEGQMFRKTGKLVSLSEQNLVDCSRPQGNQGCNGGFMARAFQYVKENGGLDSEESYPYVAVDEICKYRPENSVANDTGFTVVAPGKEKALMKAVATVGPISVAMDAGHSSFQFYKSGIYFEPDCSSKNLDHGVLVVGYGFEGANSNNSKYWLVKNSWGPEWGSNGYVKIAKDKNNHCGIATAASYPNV

Cathepsin X = Cathepsin X (Homo sapiens, UniProt Q9UBR2); test: Selectivity assay, cathepsin X; assay type: biochemical; settings: for % inhibition: 16 μM inhibitor
Cathepsin X, sequence (Q9UBR2 62-303): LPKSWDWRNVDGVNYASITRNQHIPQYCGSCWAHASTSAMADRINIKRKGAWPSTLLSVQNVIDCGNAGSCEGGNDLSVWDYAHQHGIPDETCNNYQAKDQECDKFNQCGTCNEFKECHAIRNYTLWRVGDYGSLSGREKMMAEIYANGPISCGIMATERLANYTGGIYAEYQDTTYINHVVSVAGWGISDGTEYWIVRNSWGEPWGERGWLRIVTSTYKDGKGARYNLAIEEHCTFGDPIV

Cathepsin S = Cathepsin S (Homo sapiens, UniProt P25774); test: Selectivity assay, cathepsin S; assay type: biochemical; settings: for % inhibition: 16 μM inhibitor
Cathepsin S, sequence (P25774 115-331): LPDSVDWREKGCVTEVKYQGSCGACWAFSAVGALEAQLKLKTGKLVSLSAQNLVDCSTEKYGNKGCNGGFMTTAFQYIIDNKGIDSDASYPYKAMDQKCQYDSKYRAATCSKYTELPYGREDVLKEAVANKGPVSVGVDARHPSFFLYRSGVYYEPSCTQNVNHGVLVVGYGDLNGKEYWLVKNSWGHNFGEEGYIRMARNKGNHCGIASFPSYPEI

cathepsin B [2] = molecular target: T1, cathepsin B; test: Cathepsin B activity assay with Z-Phe-Arg-AMC, inhibition kinetics; assay type: biochemical; settings: for KI (inactivation): read-out: KI, irreversible inhibitor kinetics
Cathepsin C = Cathepsin C (Homo sapiens, UniProt P53634); test: Selectivity assay, cathepsin C; assay type: biochemical; settings: for % inhibition: 16 μM inhibitor
Cathepsin C, sequence (P53634 25-134 limits assumed): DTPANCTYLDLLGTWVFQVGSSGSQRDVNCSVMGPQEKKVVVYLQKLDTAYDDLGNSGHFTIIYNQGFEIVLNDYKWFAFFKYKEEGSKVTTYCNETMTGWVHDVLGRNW
Cathepsin C, sequence (P53634 231-394 limits assumed): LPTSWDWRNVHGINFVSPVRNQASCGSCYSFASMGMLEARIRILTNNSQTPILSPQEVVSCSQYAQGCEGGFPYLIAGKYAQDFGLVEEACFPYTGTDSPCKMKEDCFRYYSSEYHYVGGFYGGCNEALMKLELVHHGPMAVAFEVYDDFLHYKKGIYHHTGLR
Cathepsin C, sequence (P53634 395-463 limits assumed): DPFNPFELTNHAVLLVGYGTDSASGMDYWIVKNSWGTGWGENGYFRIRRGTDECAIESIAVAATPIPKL

cathepsin B [3] = molecular target: T1, cathepsin B; test: Multiplex substrate profiling by mass spectrometry; assay type: biochemical; settings: 10 nM inhibitor, 30 min preincubation
Cathepsin K = molecular target: T2, Cathepsin K (Homo sapiens, UniProt P43235); test: Selectivity assay, cathepsin K; assay type: biochemical; settings: for % inhibition: 16 μM inhibitor
T2 sequence (P43235 115-329): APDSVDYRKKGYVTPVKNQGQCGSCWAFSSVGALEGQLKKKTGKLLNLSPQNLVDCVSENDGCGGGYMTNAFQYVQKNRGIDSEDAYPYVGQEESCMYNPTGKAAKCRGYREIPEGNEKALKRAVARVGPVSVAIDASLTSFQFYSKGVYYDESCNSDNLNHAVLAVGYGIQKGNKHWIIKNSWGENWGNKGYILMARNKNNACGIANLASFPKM

Cathepsin L = Cathepsin L (Homo sapiens, UniProt P07711); test: Selectivity assay, cathepsin L; assay type: biochemical; settings: for % inhibition: 16 μM inhibitor
Cathepsin L, sequence (P07711 114-333): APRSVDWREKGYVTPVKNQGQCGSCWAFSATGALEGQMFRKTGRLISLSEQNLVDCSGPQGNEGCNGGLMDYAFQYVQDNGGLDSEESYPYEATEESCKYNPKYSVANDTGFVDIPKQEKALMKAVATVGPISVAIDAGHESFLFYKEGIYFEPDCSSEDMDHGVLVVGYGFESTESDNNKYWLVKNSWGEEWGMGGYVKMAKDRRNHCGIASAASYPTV

Cathepsin H = Cathepsin H (Homo sapiens, UniProt P09668); test: Selectivity assay, cathepsin H; assay type: biochemical; settings: for % inhibition: 16 μM inhibitor
Cathepsin H, sequence (P09668 116-335 limits assumed, other chains not shown): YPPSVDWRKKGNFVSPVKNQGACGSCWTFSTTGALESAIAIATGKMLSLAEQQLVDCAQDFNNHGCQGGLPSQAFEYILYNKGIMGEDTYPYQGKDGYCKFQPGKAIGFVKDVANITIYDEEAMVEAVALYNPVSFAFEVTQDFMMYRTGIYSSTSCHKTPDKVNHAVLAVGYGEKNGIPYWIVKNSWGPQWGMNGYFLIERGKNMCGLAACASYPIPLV

cathepsin B [4] = settings: ref [44]; cited from earlier work

## CCCNC(=O)[C@H]1O[C@@H]1C(=O)N[C@H](C(=O)N1CCC[C@H]1C(=O)O)[C@@H](C)CC (relative stereo) [CA-074, N-(L-3-trans-propylcarbamoyloxirane-2-carbonyl)-L-isoleucyl-L-proline]
Cathepsin B [1]
  irreversible or reversible inhibition of cathepsin B: irreversible
Cathepsin V; pH 4.6
  IC50: > 16 µM
Cathepsin V; pH 4.6, 16 µM
  % inhibition: 10%
Cathepsin V; pH 5.5
  IC50: > 16 µM
Cathepsin V; pH 7.2
  IC50: > 16 µM
Cathepsin X; pH 4.6
  IC50: > 16 µM
Cathepsin X; pH 4.6, 16 µM
  % inhibition: 5%
Cathepsin X; pH 5.5
  IC50: > 16 µM
Cathepsin S; pH 4.6
  IC50: > 16 µM
Cathepsin S; pH 5.5
  IC50: 4.8 µM
Cathepsin S; pH 7.2
  IC50: > 16 µM
  % inhibition: 29%
Cathepsin B [2]; 10 nM inhibitor, pH 7.2
  effect on cathepsin B cleavage of Z-Phe-Arg-AMC substrate: no effect
Cathepsin C; pH 4.6
  IC50: > 16 µM
Cathepsin C; pH 5.5
  IC50: > 16 µM
Cathepsin C; pH 7.2
  IC50: > 16 µM
Cathepsin B [3]; pH 4.6
  effect on cathepsin B cleavages of peptide library substrates (MSP-MS): blocked
Cathepsin B [3]; pH 7.2
  effect on cathepsin B cleavages of peptide library substrates (MSP-MS): no effect
Cathepsin K; pH 4.6
  IC50: > 16 µM
Cathepsin K; pH 4.6, 16 µM
  % inhibition: 8%
Cathepsin K; pH 5.5
  IC50: > 16 µM
Cathepsin K; pH 7.2
  IC50: > 16 µM

## CCCNC(=O)[C@H]1O[C@@H]1C(=O)N[C@H](C(=O)N1CCC[C@H]1C(=O)OC)[C@@H](C)CC [CA-074Me]
Cathepsin B [1]
  irreversible or reversible inhibition of cathepsin B: irreversible inhibition
Cathepsin V; pH 5.5
  IC50: > 16 µM
  % inhibition: 22%
Cathepsin V; pH 7.2
  IC50: > 16 µM
  % inhibition: 0%
Cathepsin L; pH 4.6
  IC50: > 16 µM
  % inhibition: 0%
Cathepsin L; pH 5.5
  IC50: > 16 µM
  % inhibition: 0%
Cathepsin X; pH 4.6
  IC50: > 16 µM
  % inhibition: 0%
Cathepsin X; pH 5.5
  IC50: > 16 µM
  % inhibition: 0%
Cathepsin S; pH 4.6
  IC50: > 16 µM
  % inhibition: 22%
Cathepsin S; pH 5.5
  IC50: 5.5 µM
Cathepsin S; pH 7.2
  IC50: 3.8 µM
Cathepsin B [2]; pH 4.6
  IC50: 8.9 µM
  fold less potent than CA-074 (IC50): 1495 fold
  kinact: 0.016 s⁻¹
  kinact/KI: 310 M⁻¹ s⁻¹
  KI (inactivation): 52 µM
Cathepsin B [2]; pH 4.6, Z-Phe-Arg-AMC substrate, no preincubation
  IC50: 8.97 µM
Cathepsin B [2]; pH 5.5
  fold less potent than CA-074 (IC50): 311 fold
  kinact: 0.014 s⁻¹
  kinact/KI: 250 M⁻¹ s⁻¹
  potency (KI) compared to CA-074: 1/265
  KI (inactivation): 56 µM
Cathepsin B [2]; pH 5.5, Z-Phe-Arg-AMC substrate, no preincubation
  IC50: 13.7 µM
Cathepsin B [2]; pH 7.2
  IC50: 7.6 µM
  fold less potent than CA-074 (IC50): 10 fold
  kinact: 0.014 s⁻¹
  kinact/KI: 480 M⁻¹ s⁻¹
  potency (KI) compared to CA-074: 1/15
  KI (inactivation): 29 µM
Cathepsin B [2]; pH 7.2, Z-Phe-Arg-AMC substrate, no preincubation
  IC50: 7.56 µM
Cathepsin C; pH 4.6
  IC50: > 16 µM
  % inhibition: 5%
Cathepsin C; pH 5.5
  IC50: > 16 µM
  % inhibition: 0%
Cathepsin C; pH 7.2
  IC50: > 16 µM
  % inhibition: 4%
Cathepsin H; pH 4.6
  IC50: > 16 µM
  % inhibition: 0%
Cathepsin H; pH 5.5
  IC50: > 16 µM
  % inhibition: 0%
Cathepsin H; pH 7.2
  IC50: > 16 µM
  % inhibition: 19%
Cathepsin K; pH 4.6
  IC50: > 16 µM
  % inhibition: 0%
Cathepsin K; pH 5.5
  IC50: > 16 µM
  % inhibition: 0%
Cathepsin K; pH 7.2
  IC50: > 16 µM
  % inhibition: 16%

## Cc1cccc(C)c1C(=O)OCC(=O)[C@H](CCCCN)NC(=O)[C@H](CCCN=C(N)N)NC(=O)OCc1ccccc1 [Z-Arg-Lys-AOMK]
Cathepsin B [4]
  fold selective at inhibiting cathepsin B at pH 7.4 over pH 4.6: > 100 fold
